# Results taken from patent publication US12275684B2, “Methods for making and using endoxifen” (Atossa Therapeutics, Inc., priority 2017, dated 2025).
# Experiment: Placebo controlled, dose escalation pharmacokinetic study of oral (Z)-Endoxifen capsules (serum endoxifen; incl. accumulation ratios and dose linearity)
# Type: in vivo, human
# Design: Serum concentration, Maximum / Serum concentration, GeoMean / Serum concentration, Mean / Serum concentration, Median / terminal rate constant: unit not given here
# Conditions: for AUC24hr / AUC to last time point / AUC(0-inf): in ng·h/mL
# From the text: An objective of the study was to assess the safety and tolerability of oral (Z)-Endoxifen when administered […] orally as a capsule to healthy female volunteers. A secondary objective was to assess the pharmacokinetics of multiple doses of oral (Z)-Endoxifen in the subjects.
# Generally, healthy female volunteers aged ≥18 years and ≤65 years were enrolled. 24 participants were enrolled in 3 cohorts and will be administered study drug orally. Three dose levels of orally administered (Z)-Endoxifen were investigated in 3 cohorts. In each cohort participants were randomized to receive an oral (Z)-Endoxifen or placebo in a blinded fashion. Enteric-resistant capsules used in the study were designed as delayed release capsules to resist rupture for at least 30 minutes, but typically, for about 2 hours, under gastric conditions and then open fully in intestinal fluid (DRCaps; Capsugel, a Lonza Company, USA). Enteric-resistant (Swedish Orange size Zero (0); Capsugel, USA) DRCaps capsules manually filled with 1, 2 or 4 mg of (Z)-endoxifen neat in compliance with GMP requirements were used. Placebo capsules contained microcrystalline cellulose an inert common capsule and tablet excipient.
# Each cohort enrolled 8 participants, with 6 participants receiving (Z)-Endoxifen 1 mg capsules orally at 1 mg (Cohort 1), 2 mg (Cohort 2) or 4 mg (Cohort 3) doses and 2 participants receiving matching placebo capsules. In Cohort 1 (Dose Level=1 mg) two participants (sentinels) were dosed 24 hours prior to the remaining participants. One sentinel was dosed with (Z)-Endoxifen and the other with placebo. The remaining six participants in Cohort 1 were dosed as no safety concerns were identified in the sentinel participants. The non-sentinel participants in Cohort 1 were admitted to the clinical research facility at least one day later than the sentinels. There were no sentinels in Cohorts 2 and 3.
# Participant engagement in this study was for a period of 56 days. These included a 28 day screening period, and a 7 day post treatment period for Pharmacokinetic (PK) sampling. There were two confinement periods, one at the beginning and one at the end of the dosing periods. Participants were confined to the clinical facility on Days-1 through to Day 2 and Days 21 and 22. If participants were to experience any clinically significant adverse events during the study, they would have been required to remain in the clinical facility for further observation at the discretion of the Principal Investigator (PI).
# Healthy female volunteers were screened within 28 days prior to commencement of dosing. Participants were admitted to the clinical facility on Day-1 for up to 3 days. The first dose of (Z)-Endoxifen or placebo capsules was administered on Day 1. Following completion of all safety assessments and sampling for PK analyses, participants were discharged from the clinical facility on Day 2. The first dose on Day 1 was followed by a 6-day treatment free period (Days 2-7). Each participant returned to the clinical facility for PK blood draws and safety assessments during the treatment free period on study Days 4 and 6. On Day 8 participants commenced daily administration of (Z)-Endoxifen capsules or placebo capsules for 14 consecutive days (Days 8-21). Participants were supplied with study drug capsules and asked to self administer daily. Participants visited the clinical facility on Days 11, 14 and 17, prior to dose administration, for PK blood draws and safety assessments. On the morning of Day 21 each participant returned to the clinical facility prior to dose administration and were confined to the facility until Day 22 to allow for the collection of PK blood draws and safety assessments. The Day 21 dose was the last administration of study drug. Participants were discharged from the clinical facility on Day 22 and returned for PK blood draws and safety assessments on study Days 24, 26, and 28. […]
# [1] = Day 1, dose 4 mg oral, Maximum, N 6
# [2] = Day 1, dose 4 mg oral, Minimum, N 6
# [3] = Day 21, dose 2 mg oral once daily, GeoMean, N 6
# [4] = Day 21, dose 2 mg oral once daily, Maximum, N 6
# [5] = Day 21, dose 2 mg oral once daily, Mean, N 6
# [6] = Day 21, dose 2 mg oral once daily, Median, N 6
# [7] = Day 21, dose 2 mg oral once daily, Minimum, N 6
# [8] = Day 21, dose 4 mg oral once daily, GeoMean, N 6
# [9] = Day 21, dose 4 mg oral once daily, Maximum, N 6
# [10] = Day 21, dose 4 mg oral once daily, Mean, N 6
# [11] = Day 21, dose 4 mg oral once daily, Median, N 6
# [12] = Day 21, dose 4 mg oral once daily, Minimum, N 6
structure (smiles),measurement,setting,value
"CC/C(=C(\c1ccc(O)cc1)c1ccc(OCCNC)cc1)c1ccccc1 [(Z)-Endoxifen, (Z)-4-(1-(4-(2-(methylamino)ethoxy)phenyl)-2-phenylbut-1-enyl) phenol]","CL/F, Min","Day 1, 1 mg, N = 5",1.35 L/h
same,"Cmax, Max","Day 1, 1 mg, N = 5",0.012 µg/mL
same,"Cmax, Min","Day 1, 1 mg, N = 5",0.007 µg/mL
same,"Kel, GeoMean","Day 1, 1 mg, N = 5",0.015 h⁻¹
same,"Kel, Max","Day 1, 1 mg, N = 5",0.018 h⁻¹
same,"Kel, Mean","Day 1, 1 mg, N = 5",0.015 h⁻¹
same,"Kel, Median","Day 1, 1 mg, N = 5",0.015 h⁻¹
same,"Kel, Min","Day 1, 1 mg, N = 5",0.013 h⁻¹
same,"Thalf, GeoMean","Day 1, 1 mg, N = 5",45.6 h
same,"Thalf, Max","Day 1, 1 mg, N = 5",54.4 h
same,"Thalf, Mean","Day 1, 1 mg, N = 5",46.1 h
same,"Thalf, Median","Day 1, 1 mg, N = 5",47.2 h
same,"Thalf, Min","Day 1, 1 mg, N = 5",37.5 h
same,"Tmax, Max","Day 1, 1 mg, N = 5",8.08 h
same,"Tmax, Min","Day 1, 1 mg, N = 5",2.0 h
same,"CL/F, GeoMean","Day 1, 2 mg, N 6",1.85 L/h
same,"CL/F, Maximum","Day 1, 2 mg, N 6",2.65 L/h
same,"CL/F, Mean","Day 1, 2 mg, N 6",1.89 L/h
same,"CL/F, Median","Day 1, 2 mg, N 6",1.83 L/h
same,"CL/F, Minimum","Day 1, 2 mg, N 6",1.34 L/h
same,"Cmax, Maximum","Day 1, 2 mg, N 6",0.022 µg/mL
same,"Cmax, Minimum","Day 1, 2 mg, N 6",0.013 µg/mL
same,"Kel, GeoMean","Day 1, 2 mg, N 6",0.015 h⁻¹
same,"Kel, Maximum","Day 1, 2 mg, N 6",0.018 h⁻¹
same,"Kel, Mean","Day 1, 2 mg, N 6",0.015 h⁻¹
same,"Kel, Median","Day 1, 2 mg, N 6",0.016 h⁻¹
same,"Kel, Minimum","Day 1, 2 mg, N 6",0.010 h⁻¹
same,"Thalf, GeoMean","Day 1, 2 mg, N 6",47.7 h
same,"Thalf, Maximum","Day 1, 2 mg, N 6",68.1 h
same,"Thalf, Mean","Day 1, 2 mg, N 6",49.0 h
same,"Thalf, Median","Day 1, 2 mg, N 6",44.0 h
same,"Thalf, Minimum","Day 1, 2 mg, N 6",37.8 h
same,"Tmax, Minimum","Day 1, 2 mg, N 6",3.00 h
same,terminal rate constant,"Day 1, dose 4 mg oral, GeoMean, N 6",0.017
same,Cmax,[1],0.062 µg/mL
same,Tmax,[1],10.00 h
same,apparent terminal half life (t½),[1],56.0 h
same,terminal rate constant,[1],0.022
same,AUC24hr,[1],1116
same,AUC to last time point,[1],3574
same,AUC(0-inf),[1],4624
same,terminal rate constant,"Day 1, dose 4 mg oral, Mean, N 6",0.017
same,terminal rate constant,"Day 1, dose 4 mg oral, Median, N 6",0.017
same,Cmax,[2],0.014 µg/mL
same,Tmax,[2],3.00 h
same,apparent terminal half life (t½),[2],31.6 h
same,terminal rate constant,[2],0.012
same,AUC24hr,[2],258
same,AUC to last time point,[2],691
same,AUC(0-inf),[2],736
same,"CL/F, GeoMean","Day 21, 1 mg, N = 5",2.32 L/h
same,"CL/F, Maximum","Day 21, 1 mg, N = 5",4.03 L/h
same,"CL/F, Mean","Day 21, 1 mg, N = 5",2.49 L/h
same,"CL/F, Median","Day 21, 1 mg, N = 5",1.90 L/h
same,"CL/F, Minimum","Day 21, 1 mg, N = 5",1.57 L/h
same,"Cmax, Maximum","Day 21, 1 mg, N = 5",0.034 µg/mL
same,"Cmax, Minimum","Day 21, 1 mg, N = 5",0.014 µg/mL
same,"Kel, GeoMean","Day 21, 1 mg, N = 5",0.013 h⁻¹
same,"Kel, Maximum","Day 21, 1 mg, N = 5",0.017 h⁻¹
same,"Kel, Mean","Day 21, 1 mg, N = 5",0.014 h⁻¹
same,"Kel, Median","Day 21, 1 mg, N = 5",0.014 h⁻¹
same,"Kel, Minimum","Day 21, 1 mg, N = 5",0.011 h⁻¹
same,"Thalf, GeoMean","Day 21, 1 mg, N = 5",51.7 h
same,"Thalf, Maximum","Day 21, 1 mg, N = 5",65.8 h
same,"Thalf, Mean","Day 21, 1 mg, N = 5",52.6 h
same,"Thalf, Median","Day 21, 1 mg, N = 5",49.3 h
same,"Thalf, Minimum","Day 21, 1 mg, N = 5",40.6 h
same,"Tmax, Maximum","Day 21, 1 mg, N = 5",8.42 h
same,Css (AUCtau/tau),[3],0.0374 µg/mL
same,terminal rate constant,[3],0.016
same,Cmax,[4],0.065 µg/mL
same,Css (AUCtau/tau),[4],0.0491 µg/mL
same,Tmax,[4],6.05 h
same,apparent terminal half life (t½),[4],50.8 h
same,terminal rate constant,[4],0.021
same,AUC24hr,[4],1177
same,Css (AUCtau/tau),[5],0.038 µg/mL
same,terminal rate constant,[5],0.016
same,Css (AUCtau/tau),[6],0.0379 µg/mL
same,terminal rate constant,[6],0.015
same,Cmax,[7],0.035 µg/mL
same,Css (AUCtau/tau),[7],0.0298 µg/mL
same,Tmax,[7],2.00 h
same,apparent terminal half life (t½),[7],33.0 h
same,terminal rate constant,[7],0.014
same,AUC24hr,[7],716
same,Css (AUCtau/tau),[8],0.0727 µg/mL
same,terminal rate constant,[8],0.016
same,Cmax,[9],0.178 µg/mL
same,Css (AUCtau/tau),[9],0.1264 µg/mL
same,Tmax,[9],10.00 h
same,apparent terminal half life (t½),[9],54.3 h
same,terminal rate constant,[9],0.020
same,AUC24hr,[9],3034
same,Css (AUCtau/tau),[10],0.0851 µg/mL
same,terminal rate constant,[10],0.016
same,Css (AUCtau/tau),[11],0.1029 µg/mL
same,terminal rate constant,[11],0.015
same,Cmax,[12],0.042 µg/mL
same,Css (AUCtau/tau),[12],0.0257 µg/mL
same,Tmax,[12],2.00 h
same,apparent terminal half life (t½),[12],34.0 h
same,terminal rate constant,[12],0.013
same,AUC24hr,[12],616
